Measured values: patent US8748130B2, “Human papillomavirus / Ii-Key hybrids and methods of use” (priority 2008, dated 2014)

System: HPV11-specific CTL activity
Experiment: In vivo CTL assay (CFSE-labelled target cells) after co-immunization with CTL epitope HPV11
Parameters: species or system HLA-DR4-tg mice
Conditions: 3 weeks
Method: HLA-DR4-tg mice were immunized with no peptide (A); 60 nmole of HPV11 (HPV16 E7 (49-57) an H-2D^b-restricted CTL epitope) (B); 60 nmole of HPV11 plus 15 nmole HPV4 hybrid (C); 60 nmole of HPV11 plus 30 nmole HPV4 hybrid (D); or 60 nmole of HPV11 plus 60 nmole HPV4 hybrid (E). Peptides were mixed with 20 μg of CpG and then emulsified in an equal volume of IFA in a total volume of 150 μl/mouse. Three weeks after immunization, HPV11-specific CTL activity was measured in an in vivo assay whereby the cells were incubated with either the immunizing peptide (HPV11) and a high concentration of CFSE or no peptide and a low concentration of CFSE. Equal numbers of the two cell populations were mixed and injected by tail vein into mice. The top figure indicates the percentage of HPV11-specific CTL killing as determined by the ratio of CFSE^low to CFSE^high cells using the formula 1—CFSE^low/CFSE^high following flowcytometry. The histograms for each group are shown below. The data shown are from pooled splenocytes (2 mice per group).
HLA-DR4-tg mice were immunized with no peptide (A); 60 nmole of HPV11 (HPV16 E7 (49-57), an H-2D^b-restricted CTL epitope) (B); 30 nmole HPV1 plus 60 nmole HPV11 (C); or 30 nmole HPV4 plus 60 nmole HPV11. The peptides were administered as indicated for FIG. 3. Three weeks after immunization, HPV11-specific CTL activity was measured in an in vivo assay (see FIG. 3). […]

With “rahynivtf (RAHYNIVTF; Human papillomavirus type 16) [HPV11]” the “HPV11-specific CTL killing (%)” value (Table 5: 60 nmole HPV11 alone, CpG + IFA, pooled splenocytes (2 mice per group)) was 19% and the “HPV11-specific CTL activity (%)” value (Table 6: 60 nmole HPV11 alone or with 30 nmole HPV1 or HPV4, CpG + IFA, pooled splenic cells) was 14%.
